Columns and labels:
ivyleaf morning glory [1] = test: Reference test example 1: foliar treatment, herbicidal activity; type: in vivo; details: foliage spray of emulsifiable concentrate, 125 g/ha, examined 12 days after spraying, greenhouse
Method: (§1) Cylindrical plastic pots, each of which has a diameter of 10 cm and a depth of 10 cm, were filled with soil, and then seeded with ivyleaf morning glory and velvetleaf. The test plants were grown in a greenhouse for 10 days. Then, each of the compounds 1, 2, 3, 6, 8, 12, 15, 16, 19, 21, 40, 59 and 76 was formulated into an emulsifiable concentrate according to Reference formulation example 2, and diluted with water containing a spreading agent. The dilution was uniformly sprayed over the foliage of the test plants with a sprayer at a rate of 1000 liters per hectare. After spraying, the test plants were grown in the greenhouse for 12 days, and the herbicidal activity was examined.

velvetleaf [2] = test: as above; type: in vivo; details: foliage spray of emulsifiable concentrate, 125 g/ha, examined 12 days after spraying, greenhouse
Method: as §1

ivyleaf morning glory [3] = test: Reference test example 2: soil surface treatment, herbicidal activity; type: in vivo; details: soil surface spray of emulsifiable concentrate, 500 g/ha, examined 19 days after spraying, greenhouse
From the text: as §1, with “velvetleaf. Each” for “velvetleaf. The test plants were grown in a greenhouse for 10 days. Then, each”, “with water.” for “with water containing a spreading agent.”, “the soil surface” for “the foliage of the test plants”, “for 19” for “for 12”

velvetleaf [4] = test: as above; type: in vivo; details: soil surface spray of emulsifiable concentrate, 500 g/ha, examined 19 days after spraying, greenhouse
From the text: as §1, with “velvetleaf. Each” for “velvetleaf. The test plants were grown in a greenhouse for 10 days. Then, each”, “with water.” for “with water containing a spreading agent.”, “the soil surface” for “the foliage of the test plants”, “for 19” for “for 12”

SMILES	herbicidal activity (control of growth) (ivyleaf morning glory [1])	herbicidal activity (control of growth) (velvetleaf [2])	herbicidal activity (control of growth) (ivyleaf morning glory [3])	herbicidal activity (control of growth) (velvetleaf [4])	melting point [°C]
COC(=O)COc1ncccc1Oc1cc(-n2c(=O)cc(C(F)(F)F)n(C)c2=O)c(F)cc1C#N [Compound 40]	perfectly controlled the growth	perfectly controlled the growth	perfectly controlled the growth	perfectly controlled the growth	
Cn1c(C(F)(F)F)cc(=O)n(-c2cc(Oc3cccnc3OCC(=O)O)c(Cl)cc2F)c1=O [Compound 1]	perfectly controlled the growth	perfectly controlled the growth	perfectly controlled the growth	perfectly controlled the growth	
CCOC(=O)COc1ncccc1Oc1cc(-n2c(=O)cc(C(F)(F)F)n(C)c2=O)c(F)cc1Cl [Compound 3, 3-[2-chloro-4-fluoro-5-(3-methyl-2,6-dioxo-4-trifluoromethyl-1,2,3,6-tetrahydropyrimidin-1-yl)phenoxy]-2-(ethoxycarbonylmethoxy)pyridine]	perfectly controlled the growth	perfectly controlled the growth	perfectly controlled the growth	perfectly controlled the growth	
Cn1c(C(F)(F)F)cc(=O)n(-c2cc(Oc3ccc[nH]c3=O)c(Cl)cc2F)c1=O [Compound 76, 3-[2-chloro-4-fluoro-5-(3-methyl-2,6-dioxo-4-trifluoromethyl-1,2,3,6-tetrahydropyrimidin-1-yl)phenoxy]-1H-pyridin-2-one]	perfectly controlled the growth	perfectly controlled the growth	perfectly controlled the growth	perfectly controlled the growth	180.8
COC(=O)COc1ncccc1Oc1cc(-n2c(=O)cc(C(F)(F)F)n(C)c2=O)c(F)cc1[N+](=O)[O-] [Compound 59]	perfectly controlled the growth	perfectly controlled the growth	perfectly controlled the growth	perfectly controlled the growth	
COC(=O)COc1ncccc1Oc1cc(-n2c(=O)cc(C(F)(F)F)n(C)c2=O)c(F)cc1Cl [Compound 2, 3-[2-chloro-4-fluoro-5-(3-methyl-2,6-dioxo-4-trifluoromethyl-1,2,3,6-tetrahydropyrimidin-1-yl)phenoxy]-2-(methoxycarbonylmethoxy)pyridine]	perfectly controlled the growth	perfectly controlled the growth	perfectly controlled the growth	perfectly controlled the growth	
COC(=O)COc1ncccc1Oc1cc(-n2c(=O)cc(C(F)(F)F)n(C)c2=O)c(F)cc1Br [Compound 21]	perfectly controlled the growth	perfectly controlled the growth	perfectly controlled the growth	perfectly controlled the growth	

— patent publication US7223862B2, “Pyridone compounds useful for producing pyridine compounds” (Sumitomo Chemical Company, Limited, priority 2001, dated 2007)
